Assay results as given in paper PMC4192545, “Suramin Inhibits Hsp104 ATPase and Disaggregase Activity” (PLoS ONE, 2014).

Experiments:
Δpdr5 yeast = assay: Thermotolerance of Δpdr5 yeast; assay type: cell-based; conditions: Suramin 100 µM, data not shown
ClpB = molecular target: T1, ClpB (Escherichia coli, UniProt P63284); assay: ClpB ATPase assay; assay type: biochemical, E. coli; conditions: for Normalized ATPase Activity: 10 min, ATP 1 mM, Figure 5A
T1 construct: made in house
Protocol: Wild-type or mutant Hsp104 (0.25 µM monomer) in ATPase buffer (20 mM HEPES-KOH pH 7.4, 20 mM NaCl and 10 mM MgCl2) was incubated for 60 or 10 min at 25°C in the presence of ATP (1 mM) as noted. ATPase activity was assessed by the release of inorganic phosphate determined by using a malachite green phosphate detection kit (Innova).
(A) ClpB (0.25 µM monomer) was incubated for 10 min with ATP (1 mM) and varying concentrations of Suramin. The amount of Pi produced was measured by absorbance at 635 nm. Absorbance values were normalized to the absorbance produced by ClpB in the absence of inhibitor. Values represent mean ±S.D. (n = 6). (B) Urea-denatured firefly luciferase aggregates were incubated for 90 min at 25°C with ClpB (1 µM hexamer) in the presence of 1∶1 mixtures of ATP and ATPγS and varying concentrations of Suramin. Reactivation of luciferase was then determined by luminescence and converted to % WT ClpB activity (activity of 1 µM WT ClpB in the presence of ATP and ATPγS). Values represent mean ±S.D. (n = 6–12). TEXT PRINTED IN THE PICTURE: (A) Suramin: Normalized ATPase Activity: 1.03 ([Suramin] μM: 0); Normalized ATPase Activity: 0.76 ([Suramin] μM: 100); Normalized ATPase Activity: 0.78 ([Suramin] μM: 50); Normalized ATPase Activity: 0.60 ([Suramin] μM: 25); Normalized ATPase Activity: 0.59 ([Suramin] μM: 10); Normalized ATPase Activity: 0.65 ([Suramin] μM: 5); Normalized ATPase Activity: 1.01 ([Suramin] μM: 1) | (B) Suramin: Normalized Luciferase Refolding Activity: 1.00 ([Suramin] μM: 0); Normalized Luciferase Refolding Activity: 0.16 ([Suramin] μM: 100); Normalized Luciferase Refolding Activity: 1.03 ([Suramin] μM: 50); Normalized Luciferase Refolding Activity: 1.39 ([Suramin] μM: 25); Normalized Luciferase Refolding Activity: 2.23 ([Suramin] μM: 10); Normalized Luciferase Refolding Activity: 1.82 ([Suramin] μM: 5); Normalized Luciferase Refolding Activity: 1.02 ([Suramin] μM: 1)

Hsp104 = molecular target: T2, Hsp104 (Saccharomyces cerevisiae, UniProt P31539); assay: High-throughput Hsp104 ATPase plate assay (malachite green, 384-well); assay type: biochemical, yeast; conditions: 60 min
T2 construct: made in house; host or cells: E. coli BL21-DE3 RIL
T2 sequence (P31539 whole entry): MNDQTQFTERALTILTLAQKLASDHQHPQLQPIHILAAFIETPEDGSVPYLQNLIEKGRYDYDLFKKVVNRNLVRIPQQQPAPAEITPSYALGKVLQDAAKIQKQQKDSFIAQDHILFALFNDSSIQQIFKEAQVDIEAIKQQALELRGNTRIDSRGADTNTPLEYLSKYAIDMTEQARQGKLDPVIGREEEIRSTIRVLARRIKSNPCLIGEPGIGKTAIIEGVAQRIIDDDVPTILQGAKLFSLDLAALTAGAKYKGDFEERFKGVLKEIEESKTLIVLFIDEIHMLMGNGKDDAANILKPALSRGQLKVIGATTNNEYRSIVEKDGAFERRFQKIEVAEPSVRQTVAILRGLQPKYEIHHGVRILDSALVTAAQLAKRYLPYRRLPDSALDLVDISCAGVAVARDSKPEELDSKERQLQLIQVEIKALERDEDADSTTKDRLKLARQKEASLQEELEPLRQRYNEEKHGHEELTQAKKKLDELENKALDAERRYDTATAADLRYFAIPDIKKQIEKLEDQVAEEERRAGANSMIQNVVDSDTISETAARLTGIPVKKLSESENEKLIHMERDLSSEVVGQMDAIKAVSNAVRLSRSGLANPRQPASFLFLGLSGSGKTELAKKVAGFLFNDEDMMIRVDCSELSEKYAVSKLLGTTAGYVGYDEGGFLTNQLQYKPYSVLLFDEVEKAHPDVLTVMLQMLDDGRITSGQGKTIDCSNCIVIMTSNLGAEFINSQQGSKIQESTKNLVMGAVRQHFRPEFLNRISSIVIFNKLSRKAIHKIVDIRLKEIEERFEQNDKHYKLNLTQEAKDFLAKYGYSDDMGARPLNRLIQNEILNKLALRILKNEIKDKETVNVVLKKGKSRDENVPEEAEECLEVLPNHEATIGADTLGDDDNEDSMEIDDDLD
Protocol: ATPase activity was assessed by the release of inorganic phosphate determined using a malachite green phosphate detection kit (Innova Biosciences, Cambridge, United Kingdom). Microtiter plates (384-well) were purchased from PerkinElmer (Waltham, MA). Three libraries were screened: The NIH Clinical Collection (450 small molecules), the Spectrum Collection (2,000 compounds, MicroSource, Gaylordsville, CT) and the HitFinder Collection (14,400 compounds, Maybridge).
We adapted the inorganic phosphate colorimetric assay to fit a 384-well plate format. A Ź-factor between 0.8 and 1 was calculated for the assay. A 2X Hsp104 stock solution was dispensed into each well using a Biotek microflo (Biotek Instruments, Winooski, VT). Compounds were then transferred using a Janus 96/384 Modular Dispensing Tool (PerkinElmer). Finally, a 2X ATP solution was dispensed using the Biotek microflo. Final concentrations of Hsp104 (monomer) and ATP were 0.25 µM and 1 mM respectively. Seeking to avoid the discovery of competitive inhibitors, we designed our high-throughput screen to use a 100-fold excess of ATP with respect to the test compounds (10 µM each). Final buffer conditions were 20 mM HEPES-KOH pH 7.4, 20 mM NaCl and 10 mM MgCl2. The ATPase reaction was allowed to continue for 60 min, at which time the reaction was terminated by addition of the colorimetric reagent. Absorbance was measured at 635 nm on an EnVision Xcite Multilabel plate reader (PerkinElmer). Hits were tested in duplicate. […] Ten of these were subjected to a 6-point titration (40, 13.3, 4.44, 1.45, 0.49 and 0 µM) in the absence or presence of Triton X-100, BSA, or both Triton X-100 and BSA at the specified concentrations. Heat maps were created in Excel for Mac 2011 (Microsoft Corporation) using the Conditional Formatting feature (Color Scales).
We aimed to identify small molecules capable of inhibiting Hsp104. To do so, we employed high-throughput screening using Hsp104 ATPase activity as a proxy for function. To detect changes in Hsp104 ATPase activity, we used a colorimetric assay detecting free inorganic phosphate (Pi) based on the formation of a colored complex between Pi and a dye molecule under acidic conditions, [44]. Pi is produced from the Hsp104-driven hydrolysis of ATP. The colored complex concentration, a surrogate for Pi concentration and ATPase rate, is determined by measuring the absorbance of a sample at 635 nm. We used recombinant Hsp104 purified from E. coli. An Hsp104 mutant with mutations in both NBD1 and NBD2 Walker B sequence motifs (Hsp104^DWB, carrying ATPase ablating mutations E285Q: E687Q) was used as a negative control for ATPase activity. Hsp104^WT activity results in a high A635 (high ATPase), while Hsp104^DWB activity results in a low A635 (low ATPase). We optimized the Pi colorimetric assay to fit a 384-well plate format. We selected the Hsp104 concentration (0.25 µM) on the basis of previous experience in our laboratory. The ATP concentration was selected to be in a 100-fold excess of ATP with respect to the test compounds. […] We screened 16,850 compounds from the NIH Clinical Collection as well as the Spectrum and Maybridge compound libraries. […] For instance, hexachlorophene and tannic acid inhibit Hsp104 ATPase activity by ∼80%, while Merbromin and Sennoside a inhibit by ∼20% ( Table 1 ).

T1 sequence (P63284 whole entry): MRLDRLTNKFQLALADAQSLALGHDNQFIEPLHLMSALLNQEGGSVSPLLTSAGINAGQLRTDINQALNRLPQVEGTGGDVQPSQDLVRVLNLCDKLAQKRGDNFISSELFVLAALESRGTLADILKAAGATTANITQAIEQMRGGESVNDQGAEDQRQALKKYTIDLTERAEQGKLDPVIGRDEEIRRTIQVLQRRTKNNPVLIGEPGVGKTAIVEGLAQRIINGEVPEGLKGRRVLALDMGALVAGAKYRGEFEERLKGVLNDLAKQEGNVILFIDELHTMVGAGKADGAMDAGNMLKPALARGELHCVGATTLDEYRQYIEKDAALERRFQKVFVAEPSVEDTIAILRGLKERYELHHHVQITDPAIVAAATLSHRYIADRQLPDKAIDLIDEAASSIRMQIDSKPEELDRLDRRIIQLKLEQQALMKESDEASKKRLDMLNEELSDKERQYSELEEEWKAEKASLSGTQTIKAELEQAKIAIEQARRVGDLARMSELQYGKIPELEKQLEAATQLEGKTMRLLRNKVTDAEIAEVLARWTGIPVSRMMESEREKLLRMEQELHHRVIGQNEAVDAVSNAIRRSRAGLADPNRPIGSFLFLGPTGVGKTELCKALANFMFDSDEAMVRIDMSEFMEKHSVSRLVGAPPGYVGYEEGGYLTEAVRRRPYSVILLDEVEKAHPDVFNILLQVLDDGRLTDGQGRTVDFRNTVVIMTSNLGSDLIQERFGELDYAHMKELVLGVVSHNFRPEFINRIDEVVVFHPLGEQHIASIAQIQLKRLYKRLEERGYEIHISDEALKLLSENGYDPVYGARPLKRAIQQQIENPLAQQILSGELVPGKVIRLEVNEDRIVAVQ

## Cc1ccc(C(=O)Nc2ccc(S(=O)(=O)O)c3cc(S(=O)(=O)O)cc(S(=O)(=O)O)c23)cc1NC(=O)c1cccc(NC(=O)Nc2cccc(C(=O)Nc3cc(C(=O)Nc4ccc(S(=O)(=O)O)c5cc(S(=O)(=O)O)cc(S(=O)(=O)O)c45)ccc3C)c2)c1 [Suramin]
Δpdr5 yeast
  Effect on thermotolerance: impaired neither
ClpB; ClpB 0.25 µM monomer, Suramin 100 µM
  Normalized ATPase Activity: 0.76
ClpB; ClpB, Suramin 1 µM
  Normalized ATPase Activity: 1.01
ClpB; ClpB, Suramin 5 µM
  Normalized ATPase Activity: 0.65
ClpB; ClpB, Suramin 10 µM
  Normalized ATPase Activity: 0.59
ClpB; ClpB, Suramin 25 µM
  Normalized ATPase Activity: 0.60
ClpB; ClpB, Suramin 50 µM
  Normalized ATPase Activity: 0.78
ClpB; Suramin 100 µM
  inhibition at 100 µM: 24%
Hsp104; 10 µM compound, Hsp104 0.25 µM monomer, ATP 1 mM, mean ±S.D. (n = 2), read-out: % Inhibition of Hsp104 ATP hydrolysis
  inhibition at 10 µM: 50.8 ± 2.83%
Hsp104; titration 40-0.49 µM, Triton X-100 and BSA, heat map Figure 1A
  Inhibition of Hsp104 ATPase activity in the presence of both Triton X-100 and BSA: most significantly inhibit Hsp104 ATPase activity
